Experimental data reported in patent US20210207101A1, “Hybrid Thymus, Methods of Making, and Methods of Using to Induce Xenograft Tolerance, Restore Immunocompetence and Thymic Function” (THE TRUSTEES OF COLUMBIA UNIVERSITY IN THE CITY OF NEW YORK, priority 2018, published 2021).

What was measured:
[1] = test system: human thymopoiesis in grafted thymi; assay: Human immune cell reconstitution after transplantation of 2DG-treated or untreated pig thymi into humanized NSG mice; assay type: in vivo, mouse; details: 100 mM 2DG for 12 hours before grafting; mice bled every 2-3 weeks
Description: Using the 2DG treatment to deplete the pig thymocytes and the Hamilton syringe (Method C described above) for injection of human thymic stromal cells, a hybrid thymus was generated and tested in vivo. Specifically, two vials of fetal pig thymus were thawed. After pipetting up and down to release as many thymocytes as possible, half of the pieces were treated with 100 mM 2DG for 12 hours and the other half remained untreated. On the next day, six vials of human fetal thymus were thawed. After pipetting up and down to release as many thymocytes as possible, liberase was used to digest and release the stromal cells and make a single-cell suspension. After depletion of human CD45+ cells using magnetic-activated cell sorting (MACS), 10 million thymic stromal cells were dissolved in 150 μl of cold Matrigel at a concentration of 66,000 cells per μl. Around 10 μl of the cells (around 660,000 thymic stromal cells) were injected into each fetal pig thymus piece (either 2DG-treated and non-treated). The pieces were kept with fine forceps at room temperature for about 2 minutes until the Matrigel solidified. Then, each piece was transferred to a well of a 96-well plate containing medium with 10% human serum. […] Every 2-3 weeks following transplantation, the mice were bled, and the level of human immune cell reconstitution was evaluated.

pig thymocytes = assay: Ex vivo depletion of thymocytes in pig thymic fragments; assay type: cell-based; details: 2DG 100 mM for 12 hours
Excerpt: There are different strategies to deplete the thymocytes in pig thymic fragments ex vivo, including anti-pig CD3 immunotoxin and complement-mediated toxicity (rabbit serum as source of complements plus anti-pig CD2). However, these two strategies were not effective. […] Results not shown.
[…] The ratio of remaining live double positive CD4 and CD8 cells (DP) or single positive (SP) CD4 (SP-CD4) or SP-CD8 cells on double negative (DN) cells, which contain the stromal cells, was used as the readout.

O=CC[C@@H](O)[C@H](O)[C@H](O)CO [2DG, 2-deoxyglucose]
effect of treatment of pig thymic fragments on human thymopoiesis in grafted thymi [1]: did not affect human thymopoiesis | ratio of remaining live DP or SP-CD4 or SP-CD8 cells on double negative (DN) cells (pig thymocytes): lowest ratios
